Assay [1] deals with T1, human MER (528-end) (Homo sapiens, UniProt Q12866).
T1 construct: human MER (528-end); purchased Carnabio, Japan
T1 sequence (Q12866 528-999 limits assumed): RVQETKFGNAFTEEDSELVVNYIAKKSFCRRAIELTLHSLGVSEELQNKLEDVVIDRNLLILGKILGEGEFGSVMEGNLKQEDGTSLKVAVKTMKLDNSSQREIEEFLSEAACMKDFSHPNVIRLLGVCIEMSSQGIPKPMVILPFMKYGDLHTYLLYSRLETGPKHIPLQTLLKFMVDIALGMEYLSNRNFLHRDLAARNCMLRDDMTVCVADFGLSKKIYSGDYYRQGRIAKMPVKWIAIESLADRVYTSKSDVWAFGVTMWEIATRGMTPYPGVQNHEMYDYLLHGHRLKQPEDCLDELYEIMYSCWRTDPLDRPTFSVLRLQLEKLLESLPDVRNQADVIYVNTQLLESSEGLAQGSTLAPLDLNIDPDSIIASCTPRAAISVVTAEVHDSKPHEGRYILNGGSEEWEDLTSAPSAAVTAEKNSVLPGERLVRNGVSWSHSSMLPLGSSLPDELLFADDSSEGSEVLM
The assay can be described thus: HTRF kinase activity biochemical assay, MER.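 Further: phosphorylation of a biotin-tagged tyrosine kinase substrate detected by Eu3+-cryptate antibody and streptavidin-XL665 time-resolved fluorescence, read after 1 h at room temperature.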 Particulars: recombinant kinase, 10 uM ATP, 30 minutes pre-incubation; read-out: HTRF MERTK IC50. (In general: In TR-FRET formats the signal depends on donor and acceptor labels being close together.)

For assay [2], the target named is T2, human AXL (473-end) (Homo sapiens, UniProt P30530).
T2 construct: human AXL (473-end); purchased SignalChem, Canada
T2 sequence (P30530 473-894 limits assumed): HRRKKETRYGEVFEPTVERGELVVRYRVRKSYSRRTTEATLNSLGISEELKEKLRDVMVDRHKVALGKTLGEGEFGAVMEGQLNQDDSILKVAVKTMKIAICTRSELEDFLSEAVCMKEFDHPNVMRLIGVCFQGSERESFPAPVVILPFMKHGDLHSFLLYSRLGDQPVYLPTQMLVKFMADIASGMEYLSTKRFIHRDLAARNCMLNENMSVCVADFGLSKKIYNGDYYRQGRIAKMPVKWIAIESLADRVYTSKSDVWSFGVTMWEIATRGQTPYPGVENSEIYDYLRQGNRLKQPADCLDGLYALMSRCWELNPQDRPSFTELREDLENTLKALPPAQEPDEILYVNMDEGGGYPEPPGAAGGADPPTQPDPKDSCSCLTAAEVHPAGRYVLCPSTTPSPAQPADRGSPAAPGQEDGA
The assay can be described thus: HTRF kinase activity biochemical assay, AXL.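 Further: phosphorylation of a biotinylated tyrosine kinase substrate detected via Eu3+-cryptate anti-TK antibody and streptavidin-XL665, fluorescence read after a 1 h incubation at room temperature.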 The note with it: recombinant kinase, 10 uM ATP, 30 minutes pre-incubation; read-out: HTRF AXL IC50.

Assay [3] has as its target T3, TYRO3 (455-end) (Homo sapiens, UniProt Q06418).
T3 construct: TYRO3 (455-end); purchased SignalChem, Canada
T3 sequence (Q06418 455-890 limits assumed): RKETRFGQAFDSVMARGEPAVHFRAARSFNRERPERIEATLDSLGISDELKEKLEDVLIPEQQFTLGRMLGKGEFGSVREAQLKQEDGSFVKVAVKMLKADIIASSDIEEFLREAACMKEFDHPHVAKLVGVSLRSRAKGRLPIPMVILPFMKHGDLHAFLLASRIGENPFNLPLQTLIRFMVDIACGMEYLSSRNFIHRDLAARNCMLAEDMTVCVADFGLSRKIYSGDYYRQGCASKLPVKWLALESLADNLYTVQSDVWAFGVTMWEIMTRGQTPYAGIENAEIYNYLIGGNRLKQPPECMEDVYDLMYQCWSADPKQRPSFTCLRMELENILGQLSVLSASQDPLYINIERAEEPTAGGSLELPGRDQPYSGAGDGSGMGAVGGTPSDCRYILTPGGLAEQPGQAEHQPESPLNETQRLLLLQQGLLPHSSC
The assay can be described thus: HTRF kinase activity biochemical assay, TYRO3.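 Further: biotinylated tyrosine kinase substrate phosphorylation detected via streptavidin-XL665 and Eu3+-cryptate anti-phospho antibody time-resolved fluorescence, read after 1 h detection at room temperature, 384-well format.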 The note with it: recombinant kinase, 10 uM ATP, 30 minutes pre-incubation; read-out: HTRF TYRO IC50.

Drawing on US20260232658A1, “AZETIDINYL BENZOXAZOLE COMPOUNDS AND THEIR USE AS MER AND AXL INHIBITORS” (DONG-A ST CO., LTD., priority 2022, published 2026), this text covers IC50 for 18 compounds.

Each structure is given as a SMILES string.

The IC50 is the concentration at which inhibition is half-maximal. For `Cn1cc(Nc2ncc(C3CN(c4nc5ccc(OCC6(O)CCC6)cc5o4)C3)nc2C(N)=O)cn1` [Example 44, 6-(1-{6-[(1-hydroxycyclobutyl)methoxy]-1,3-benzoxazol-2-yl}azetidin-3-yl)-3-[(1-methyl-1H-pyrazol-4-yl)amino]pyrazine-2-carboxamide], the IC50 is less than 1 nM in assay [1], 2 nM in assay [2] and 110 nM in assay [3].

For `Cn1cc(Nc2ncc(C3CN(c4nc5ccc(CCC6(O)COC6)cc5o4)C3)nc2C(N)=O)cn1` [Example 45, 6-(1-{6-[2-(3-hydroxyoxetan-3-yl)ethyl]-1,3-benzoxazol-2-yl}azetidin-3-yl)-3-[(1-methyl-1H-pyrazol-4-yl)amino]pyrazine-2-carboxamide], the results for the IC50 in assay [1], in assay [2] and in assay [3] were 3 nM, 9 nM and 620 nM, respectively.

Consider `Cn1cc(Nc2ncc(C3CN(c4nc5ccc(C(=O)N6CCOCC6)cc5o4)C3)nc2C(N)=O)cn1` [Example 46, 3-[(1-methyl-1H-pyrazol-4-yl)amino]-6-{1-[6-(morpholine-4-carbonyl)-1,3-benzoxazol-2-yl]azetidin-3-yl}pyrazine-2-carboxamide], for which the IC50 in assay [1] was 3 nM; in assay [2] it was 9 nM; in assay [3], 9 nM.

For `Cn1cc(Nc2ncc(C3CN(c4nc5ccc(OC[C@H]6COCCO6)cc5o4)C3)nc2C(N)=O)cn1` [Example 48, 6-[1-(6-{[(2R)-1,4-dioxan-2-yl]methoxy}-1,3-benzoxazol-2-yl)azetidin-3-yl]-3-[(1-methyl-1H-pyrazol-4-yl)amino]pyrazine-2-carboxamide], the figures for the IC50 in assay [1], in assay [2] and in assay [3] were 2 nM, 3 nM and 230 nM, respectively.

As to `Cn1cc(Nc2ncc(C3CN(c4nc5ccc(OCC(=O)N6CCCC6)cc5o4)C3)nc2C(N)=O)cn1` [Example 49, 3-[(1-methyl-1H-pyrazol-4-yl)amino]-6-(1-{6-[2-oxo-2-(pyrrolidin-1-yl)ethoxy]-1,3-benzoxazol-2-yl}azetidin-3-yl)pyrazine-2-carboxamide], the values for the IC50 in assay [1], in assay [2] and in assay [3] were 4 nM, 11 nM and 2030 nM, respectively.

As for `CNC(=O)Cc1ccc2nc(N3CC(c4cnc(Nc5cnn(C)c5)c(C(N)=O)n4)C3)oc2c1` [Example 50, 6-(1-{6-[2-(methylamino)-2-oxoethyl]-1,3-benzoxazol-2-yl}azetidin-3-yl)-3-[(1-methyl-1H-pyrazol-4-yl)amino]pyrazine-2-carboxamide], the IC50 stood at 9 nM in assay [1], 16 nM in assay [2] and 3550 nM in assay [3].

`Cn1cc(Nc2ncc(C3CN(c4nc5ccc(OCC(CO)CO)cc5o4)C3)nc2C(N)=O)cn1` [Example 51, 6-(1-{6-[3-hydroxy-2-(hydroxymethyl)propoxy]-1,3-benzoxazol-2-yl}azetidin-3-yl)-3-[(1-methyl-1H-pyrazol-4-yl)amino]pyrazine-2-carboxamide]: the IC50 came to 3 nM in assay [1], 6 nM in assay [2] and 1740 nM in assay [3].

Consider `Cn1cc(Nc2ncc(C3CN(c4nc5ccc(OCC6COC(C)(C)OC6)cc5o4)C3)nc2C(N)=O)cn1` [Example 51A, 6-(1-{6-[(2,2-dimethyl-1,3-dioxan-5-yl)methoxy]-1,3-benzoxazol-2-yl}azetidin-3-yl)-3-[(1-methyl-1H-pyrazol-4-yl)amino]pyrazine-2-carboxamide], for which the IC50 amounted to 2 nM in assay [1], 17 nM in assay [2] and 2380 nM in assay [3].

As for `Cn1cc(Nc2ncc(C3CN(c4nc5ccc(C(=O)NC6CC6)cc5o4)C3)nc2C(N)=O)cn1` [Example 53, 2-(3-{6-carbamoyl-5-[(1-methyl-1H-pyrazol-4-yl)amino]pyrazin-2-yl}azetidin-1-yl)-N-cyclopropyl-1,3-benzoxazole-6-carboxamide], the figures for the IC50 in assay [1], in assay [2] and in assay [3] were 4 nM, 2 nM and 2670 nM, respectively.

`Cc1ccc2nc(N3CC(c4cnc(Nc5cnn(CCO)c5)c(C(N)=O)n4)C3)oc2c1` [Example 54, 3-{[1-(2-hydroxyethyl)-1H-pyrazol-4-yl]amino}-6-[1-(6-methyl-1,3-benzoxazol-2-yl)azetidin-3-yl]pyrazine-2-carboxamide]: the IC50 in assay [1] turned out to be 5 nM; in assay [2], 23 nM; in assay [3], 620 nM.

Take `COCCn1cc(Nc2ncc(C3CN(c4nc5ccc(C)cc5o4)C3)nc2C(N)=O)cn1` [Example 55, 3-{[1-(2-methoxyethyl)-1H-pyrazol-4-yl]amino}-6-[1-(6-methyl-1,3-benzoxazol-2-yl)azetidin-3-yl]pyrazine-2-carboxamide]: the IC50 in assay [1] was found to be 3 nM; in assay [2] it was 14 nM; in assay [3], 220 nM.

Turning to `Cn1cc(Nc2ncc(C3CN(c4nc5ccc(OCC6CC(CO)C6)cc5o4)C3)nc2C(N)=O)cn1` (stereo not drawn) [Example 56, 6-[1-(6-{[3-(hydroxymethyl)cyclobutyl]methoxy}-1,3-benzoxazol-2-yl)azetidin-3-yl]-3-[(1-methyl-1H-pyrazol-4-yl)amino]pyrazine-2-carboxamide], the results for the IC50 in assay [1], in assay [2] and in assay [3] were less than 1 nM, 2 nM and 92 nM, respectively.

Regarding `Cn1cc(Nc2ncc(C3CN(c4nc5ccc(OCC6(O)COC6)cc5o4)C3)nc2C(N)=O)cn1` [Example 57, 6-(1-{6-[(3-hydroxyoxetan-3-yl)methoxy]-1,3-benzoxazol-2-yl}azetidin-3-yl)-3-[(1-methyl-1H-pyrazol-4-yl)amino]pyrazine-2-carboxamide], the IC50 in assay [1] came out at 7 nM; in assay [2], 8 nM; in assay [3], 2310 nM.

In the case of `Cn1cc(Nc2ncc(C3CN(c4nc5ccc(OC[C@H]6C[C@H]6CO)cc5o4)C3)nc2C(N)=O)cn1` [Example 58, 6-[1-(6-{1[(1S,2R)-2-(hydroxymethyl)cyclopropyl]methoxy}-1,3-benzoxazol-2-yl)azetidin-3-yl]-3-[(1-methyl-1H-pyrazol-4-yl)amino]pyrazine-2-carboxamide], the IC50 in assay [1] is less than 1 nM; in assay [2], 1 nM; in assay [3], 33 nM.

With `Cn1cc(Nc2ncc(C3CN(c4nc5ccc(C(=O)N6CCC[C@@H]6CO)cc5o4)C3)nc2C(N)=O)cn1` [Example 59, 6-(1-{6-[(2R)-2-(hydroxymethyl)pyrrolidine-1-carbonyl]-1,3-benzoxazol-2-yl}azetidin-3-yl)-3-[(1-methyl-1H-pyrazol-4-yl)amino]pyrazine-2-carboxamide], the results for the IC50 in assay [1], in assay [2] and in assay [3] were less than 1 nM, 2 nM and 30 nM, respectively.

Take `Cn1cc(Nc2ncc(C3CN(c4nc5ccc(OCCCc6ccccc6)cc5o4)C3)nc2C(N)=O)cn1` [Example 60, 3-[(1-methyl-1H-pyrazol-4-yl)amino]-6-{1-[6-(3-phenylpropoxy)-1,3-benzoxazol-2-yl]azetidin-3-yl}pyrazine-2-carboxamide]: the IC50 in assay [1] is less than 1 nM; in assay [2], 1 nM; in assay [3] it was 100 nM.

As for `Cn1cc(Nc2ncc(C3CN(c4nc5ccc(OCC(C)(C)CO)cc5o4)C3)nc2C(N)=O)cn1` [Example 61, 6-{1-[6-(3-hydroxy-2,2-dimethylpropoxy)-1,3-benzoxazol-2-yl]azetidin-3-yl}-3-[(1-methyl-1H-pyrazol-4-yl)amino]pyrazine-2-carboxamide], the IC50 is less than 1 nM in assay [1], 1 nM in assay [2] and 26 nM in assay [3].

Regarding `CN(C)C(=O)CCc1ccc2nc(N3CC(c4cnc(Nc5cnn(C)c5)c(C(N)=O)n4)C3)oc2c1` [Example 62, 6-(1-{6-[3-(dimethylamino)-3-oxopropyl]-1,3-benzoxazol-2-yl}azetidin-3-yl)-3-[(1-methyl-1H-pyrazol-4-yl)amino]pyrazine-2-carboxamide], the IC50 in assay [1] worked out at 3 nM; in assay [2] it was 6 nM; in assay [3] it was 1750 nM.
